Measurements: US4404138A, “3-[2-(Azabicyclo) ethyl]-1,2,3,4-tetrahydro-5H-[1]benzopyrano[3,4-c]pyridin-5-ones” (Warner-Lambert Company, priority 1982, dated 1983)

test system: pilocarpine-induced bronchospasm and salivary flow in mongrel dogs; test: Pilocarpine-induced bronchospasm and salivation in anesthetized mongrel dogs; format: in vivo; settings: Canis lupus familiaris; anesthetized dogs; pilocarpine nitrate 0.2 mg/kg/hr infusion; cumulative IV doses; inhibition of bronchospasm; read-out: ID50 μg/kg Bronchospasm
Protocol: In an additional testing procedure, mongrel dogs of either sex, 10.6 to 15.3 kg, are anesthetized with sodium pentobarbital, 30 mg/kg IV and then prepared for the monitoring of pulmonary mechanics. A Buxco pulmonary mechanics computer is used to calculate pulmonary resistance, dynamic compliance, and tidal volume from transpulmonary pressure and flow data. Respiratory rate, heart rate and mean arterial blood pressure are also monitored. The femoral vein is cannulated for the delivery of drugs.
Pilocarpine nitrate (0.2 mg/kg/hr) is than infused to induce a bronchospasm and salivary flow. […] Salivary output is collected from a catheterized Wharton's duct at five minute intervals. After salivation has stabilized, three control collections are taken at five minute intervals followed by a series of cumulative IV doses of test compound (1, 3, 10, 30, 100, 300, 1000, 3000, and 10,000 μg/kg) that are injected every five minutes for 45 minutes.
The percent inhibition of both the bronchospasm and salivation are calculated for each dose with a return to prepilocarpine resistance levels or cessation of salivation equal to a 100% inhibition.

SMILES	ED50
COc1ccc2c3c(c(=O)oc2c1)CN(CCN1CC2CCC(CC2)C1)CC3 [R1=H, R2=MeO, R3=H, X=drawing 14]	35 µg/kg
COc1ccc2c3c(c(=O)oc2c1)CN(CCN1CC2CCC1CC2)CC3 [R1=H, R2=MeO, R3=H, X=drawing 16]	63 µg/kg
COc1cc2oc(=O)c3c(c2cc1OC)CCN(CCN1CC2CCC(CC2)C1)C3 [R1=MeO, R2=MeO, R3=H, X=drawing 15]	113 µg/kg

same assay, conditions: Canis lupus familiaris; anesthetized dogs; pilocarpine nitrate 0.2 mg/kg/hr infusion; cumulative IV doses; inhibition of salivation; read-out: ID50 μg/kg Salivation

SMILES	ED50
COc1ccc2c3c(c(=O)oc2c1)CN(CCN1CC2CCC(CC2)C1)CC3 [R1=H, R2=MeO, R3=H, X=drawing 14]	104 µg/kg
COc1ccc2c3c(c(=O)oc2c1)CN(CCN1CC2CCC1CC2)CC3 [R1=H, R2=MeO, R3=H, X=drawing 16]	102 µg/kg
COc1cc2oc(=O)c3c(c2cc1OC)CCN(CCN1CC2CCC(CC2)C1)C3 [R1=MeO, R2=MeO, R3=H, X=drawing 15]	530 µg/kg

same assay, conditions: value >1 indicates the compound is more potent as a bronchodilator than as an antisecretory agent

SMILES	Pulmonary Selectivity*
COc1ccc2c3c(c(=O)oc2c1)CN(CCN1CC2CCC(CC2)C1)CC3 [R1=H, R2=MeO, R3=H, X=drawing 14]	3
COc1ccc2c3c(c(=O)oc2c1)CN(CCN1CC2CCC1CC2)CC3 [R1=H, R2=MeO, R3=H, X=drawing 16]	1.61
COc1cc2oc(=O)c3c(c2cc1OC)CCN(CCN1CC2CCC(CC2)C1)C3 [R1=MeO, R2=MeO, R3=H, X=drawing 15]	4.7
